Values after ≈ are worked out from the molar mass of the structure shown. Where two headings read alike, the source gives them in different places.

As a reminder, the MBC is the lowest tested concentration that kills the bacteria rather than only halting them. Usually MIC stands for the least concentration at which growth counts as inhibited. By MFC is commonly meant the smallest concentration meeting the test's criterion for killing the fungus.

Format in all cases: cell-based
In test [1] the test system is Salmonella typhimurium (ATCC 13311). Put plainly: Antibacterial microdilution (MIC/MBC). The conditions noted are these: S.t. (S. typhimurium). The protocol: (§1) The synthesized compounds (Table 1) were evaluated for their antibacterial activity against a panel of eight species using a microdilution method with ampicillin and streptomycin as reference drugs. […] The order of activity can be presented as: 8 > 11 > 2 > 1 > 12 > 3 > 17 > 7 > 5 > 13 > 14 > 16 > 9 > 4 = 6 > 15 > 10. […] Cloacae. […] The most sensitive bacteria appeared to be En. cloacae, while E. coli was the most resistant one, followed by M. flavus.
(§2) The following Gram-negative bacteria: Escherichia coli (ATCC 35210), Enterobacter cloacae (clinical isolate), Salmonella typhimurium (ATCC 13311), as well as Gram-positive bacteria: Listeria monocytogenes (NCTC 7973), Bacillus cereus (clinical isolate), and Staphylococcus aureus (ATCC 6538) were used. The organisms were obtained from the Mycological Laboratory, Department of Plant Physiology, Institute for Biological Research “Siniša Stankovic”, Belgrade, Serbia. The minimum inhibitory (MIC) and minimum bactericidal (MBC) concentrations were determined by the modified microdilution method, as previously reported.
Background: In broth dilution the organism is exposed to a series of concentrations in liquid medium.

In test [2] the test system is Staphylococcus aureus (ATCC 6538). Put plainly: Antibacterial microdilution (MIC/MBC). As to conditions: S.a. (S. aureus). As for the experimental part: as §1, §2
Test [3] relates to Escherichia coli (ATCC 35210). Briefly: Antibacterial microdilution (MIC/MBC). The conditions noted are these: Escherichia coli, ATCC35210, E. coli; for MIC: read-out: MIC. As for the experimental part: as §1, §2
The test system of test [4] is Listeria monocytogenes (NCTC 7973). Briefly: Antibacterial microdilution (MIC/MBC). The conditions noted are these: Listeria monocytogenes, NCTC7973, L.m. (L. monocytogenes); for MIC: read-out: MIC. The protocol:
as §1, §2

For test [5], the system named is Enterobacter cloacae (clinical isolate). Briefly: Antibacterial microdilution (MIC/MBC). As to conditions: Enterobacter cloacae, En.cl (En. cloacae); for MIC: read-out: MIC. As for the experimental part:
as §1, §2

The next test has as its system P. aeruginosa. Put plainly: Antibacterial microdilution (MIC/MBC). The conditions noted are these: Pseudomonas aeruginosa, P.a. (P. aeruginosa); for MIC: read-out: MIC. The protocol: as §1, §2
Test [6] deals with Bacillus cereus (clinical isolate). Put plainly: Antibacterial microdilution (MIC/MBC). The conditions noted are these: Bacillus cereus, B.c. (B. cereus); for MIC: read-out: MIC. As for the experimental part: as §1, §2
The next test has as its system M. flavus. Briefly: Antibacterial microdilution (MIC/MBC). The conditions noted are these: Micrococcus flavus; M.f. (M. flavus). As for the experimental part: as §1, §2
Test [7] has as its system Penicillium verrucosum var. cyclopium (food isolate). Briefly: Antifungal bioassay (MIC/MFC). As for the experimental part:
For the antifungal bioassays, six fungi were used: Aspergillus niger (ATCC 6275), Aspergillus fumigatus (ATCC 1022), Aspergillus versicolor (ATCC 11730), Penicillium funiculosum (ATCC 36839), Trichoderma viride (IAM 5061), and Penicillium verrucosum var. cyclopium (food isolate). The organisms were obtained from the Mycological Laboratory, Department of Plant Physiology, Institute for Biological Research “Siniša Stankovic”, Belgrade, Serbia. All experiments were performed in duplicate.

Test [8] deals with Aspergillus fumigatus (ATCC 1022). Put plainly: Antifungal bioassay (MIC/MFC). The conditions noted are these: ATCC1022, A.f. (A. fumigatus). The protocol: (§3) For the antifungal bioassays, six fungi were used: […] The organisms were obtained from the Mycological Laboratory, Department of Plant Physiology, Institute for Biological Research “Siniša Stankovic”, Belgrade, Serbia. All experiments were performed in duplicate.

In test [9] the test system is Penicillium funiculosum (ATCC 36839). Put plainly: Antifungal bioassay (MIC/MFC). The conditions noted are these: Talaromyces funiculosus, ATCC36839; P.f. (P. funiculosum). As for the experimental part: as §3
Test [10] concerns Aspergillus niger (ATCC 6275). Briefly: Antifungal bioassay (MIC/MFC). The conditions noted are these: ATCC6275, A.n. (A. niger). As for the experimental part:
as §3

For another test, the system named is P. ochrochloron. Put plainly: Antifungal bioassay (MIC/MFC). The conditions noted are these: for MFC: P.o. (P. ochrochloron); for MIC: P.o. (P. ochrochloron; text: P. ochramensis). As for the experimental part:
as §3

Test [11] deals with Aspergillus versicolor (ATCC 11730). Briefly: Antifungal bioassay (MIC/MFC). As to conditions: ATCC11730, A.v. (A. versicolor). The protocol:
as §3

The next test concerns A. ochraceus. Briefly: Antifungal bioassay (MIC/MFC). As to conditions: Aspergillus ochraceus, A.o. (A. ochraceus); for MIC: read-out: MIC. The protocol:
as §3

Test [12] relates to Trichoderma viride (IAM 5061). Put plainly: Antifungal bioassay (MIC/MFC). As to conditions: T.v. (T. viride). The protocol:
as §3

The mark [13] stands for this setting: Salmonella enterica, read-out: MIC.
The mark [14] stands for this setting: Staphylococcus aureus, ATCC6538.
Where [15] appears, read: Staphylococcus aureus, ATCC6538, read-out: MIC.
Setting [16] is: Penicillium ochrochloron, read-out: MIC.
[17] abbreviates: Trichoderma viride, IAM5061, read-out: MIC.

With `[H]/N=C(/N)N[C@H]1[C@H](O)[C@@H](O)[C@H](O[C@@H]2O[C@@H](C)[C@](O)(C=O)[C@H]2O[C@@H]2O[C@@H](CO)[C@H](O)[C@@H](O)[C@@H]2NC)[C@@H](N/C(N)=N\[H])[C@@H]1O` [Streptomycin, reference compound], the MBC in test [1] (Salmonella enterica) was 200 ± 9 µg/mL (≈ 344 µM); in test [2] (setting [14]), 200 µg/mL (≈ 344 µM); in test [3], 200 µg/mL (≈ 344 µM); in test [4], 300 ± 30 µg/mL (≈ 516 µM); in test [5] it was 300 ± 30 µg/mL (≈ 516 µM); with P. aeruginosa, 200 µg/mL (≈ 344 µM). The MBC was 3 ± 0.5 µg/mL (≈ 5.16 µM) in test [6] and 300 ± 30 µg/mL (≈ 516 µM) with M. flavus. The MIC in test [1] (setting [13]) worked out at 100 ± 50 µg/mL (≈ 172 µM); in [2] (setting [15]), 100 µg/mL (≈ 172 µM); in test [3], 100 ± 50 µg/mL (≈ 172 µM); in test [4], 150 ± 30 µg/mL (≈ 258 µM); in test [5] it was 200 ± 5 µg/mL (≈ 344 µM); in the test on P. aeruginosa, 100 ± 50 µg/mL (≈ 172 µM). Besides, the MIC was determined as 1.5 ± 0.2 µg/mL (≈ 2.58 µM) in test [6] and 200 µg/mL (≈ 344 µM) against M. flavus.
On to `CC(=O)N1CCN(c2ccc(OCC3COC(Cn4ccnc4)(c4ccc(Cl)cc4Cl)O3)cc2)CC1` (centres unmarked) [Ketoconazole, reference compound], for which the MFC in [7] stood at 300 ± 10 µg/mL (≈ 565 µM); in [8], 500 ± 1 µg/mL (≈ 941 µM); in test [9] it was 500 ± 3 µg/mL (≈ 941 µM); in test [10] it was 500 ± 4 µg/mL (≈ 941 µM); against P. ochrochloron (Penicillium ochrochloron), 3500 ± 30 µg/mL (≈ 6590 µM); in test [11] it was 500 ± 2 µg/mL (≈ 941 µM). Besides, the MFC in the test with A. ochraceus stood at 500 ± 6 µg/mL (≈ 941 µM); in [12] (Trichoderma viride, IAM5061) it was 1500 ± 90 µg/mL (≈ 2820 µM). In addition, the MIC in [7] was found to be 200 ± 10 µg/mL (≈ 376 µM); in test [8] it was 200 ± 10 µg/mL (≈ 376 µM); in test [9], 200 ± 10 µg/mL (≈ 376 µM); in [10], 200 ± 10 µg/mL (≈ 376 µM); in the test with P. ochrochloron (setting [16]), 2500 ± 300 µg/mL (≈ 4700 µM); in [11], 200 ± 10 µg/mL (≈ 376 µM). Further, the MIC stood at 250 ± 50 µg/mL (≈ 470 µM) with A. ochraceus and 1000 ± 100 µg/mL (≈ 1880 µM) in test [12] (setting [17]).
For the molecule `COC(=O)c1[nH]c2ccccc2c1/C=C1\SC(=S)N(Cc2ccco2)C1=O` [Compound 7, (Z)-methyl 3-((3-(furan-2-ylmethyl)-4-oxo-2-thioxothiazolidin-5-ylidene)methyl)-1H-indole-2-carboxylate], the MFC turned out to be 30 ± 10 µg/mL (≈ 75.3 µM) in test [7]; 120 ± 40 µg/mL (≈ 301 µM) in [8]; 30 ± 10 µg/mL (≈ 75.3 µM) in [9]; 15 ± 3 µg/mL (≈ 37.6 µM) in [10]; 15 ± 3 µg/mL (≈ 37.6 µM) in the test with P. ochrochloron (Penicillium ochrochloron); 15 ± 3 µg/mL (≈ 37.6 µM) in [11]. The MFC was 15 ± 3 µg/mL (≈ 37.6 µM) with A. ochraceus and 8 ± 0.6 µg/mL (≈ 20.1 µM) in [12] (Trichoderma viride, IAM5061). Besides, the MIC in test [7] amounted to 15 ± 3 µg/mL (≈ 37.6 µM); in [1] it was 15 ± 9 µg/mL (≈ 37.6 µM); in test [1] (setting [13]) it was 15 µg/mL (≈ 37.6 µM); in test [2], 15 ± 9 µg/mL (≈ 37.6 µM); in test [2] (setting [15]), 15 µg/mL (≈ 37.6 µM); in test [3], 30 ± 10 µg/mL (≈ 75.3 µM). Further, the MIC came out at 30 ± 10 µg/mL (≈ 75.3 µM) in [4]; 15 ± 9 µg/mL (≈ 37.6 µM) in test [5]; 30 ± 10 µg/mL (≈ 75.3 µM) in the test on P. aeruginosa; 30 ± 10 µg/mL (≈ 75.3 µM) in test [6]; 45 ± 3 µg/mL (≈ 113 µM) with M. flavus; 60 ± 6 µg/mL (≈ 151 µM) in test [8]. Besides, the minimal inhibitory concentration (MIC) in test [9] turned out to be 15 ± 3 µg/mL (≈ 37.6 µM); in test [10] it was 8 ± 0.6 µg/mL (≈ 20.1 µM); in the test with P. ochrochloron, 8 ± 0.6 µg/mL (≈ 20.1 µM); with P. ochrochloron (setting [16]), 8 µg/mL (≈ 20.1 µM); in test [11] it was 8 ± 0.6 µg/mL (≈ 20.1 µM); with A. ochraceus, 8 ± 0.6 µg/mL (≈ 20.1 µM). Besides, the minimum inhibitory concentration (MIC) in [12] was 4 ± 1 µg/mL (≈ 10 µM); in test [12] (setting [17]), 4 µg/mL (≈ 10 µM). In addition, the minimal bactericidal concentration (MBC) in [1] (Salmonella enterica) worked out at 30 ± 10 µg/mL (≈ 75.3 µM); in test [2] (setting [14]), 30 ± 10 µg/mL (≈ 75.3 µM); in test [3] it was 60 ± 6 µg/mL (≈ 151 µM); in [4], 60 ± 6 µg/mL (≈ 151 µM); in test [5], 30 ± 10 µg/mL (≈ 75.3 µM); in the test on P. aeruginosa it was 60 ± 6 µg/mL (≈ 151 µM). The MBC (in test [6]; against M. flavus) was 60 ± 6 µg/mL (≈ 151 µM) each time.
